Results taken from patent US9333207B2, “Pharmaceutical composition of 1-adamantylethyloxy-3-morpholino-2-propanol or pharmaceutically acceptable salts thereof for the treatment of cerebrovascular disease and neurodegenerative diseases of the central nervous system” (priority 2012, dated 2016).

Experiments:
[1] = Cerebral blood flow in the internal carotid artery system under ACVA model by ischemic and hemorrhagic types; format: in vivo; settings: rats, intravenous, doses of 3, 30, 50 and 100 mg/kg
[2] = tested on: NMDA-receptor-ionofor complex of hippocampal pyramidal neurons; assay: Aspartate-activated currents in individual pyramidal hippocampal neurons; format: cell-based, white Wistar WAG\GSto rats; settings: individual pyramidal hippocampal neurons of 15-day aged rats
neurospecific enolase = assay: Experimental treatment of rats with ischemic ACVA: neuronal degradation marker activity; format: in vivo; settings: 10 mg/kg once a day for 96 hours of ischemia
From the text: This evidences about the appropriateness of the use of the pharmaceutical compositions for parenteral use comprising the active substance 1-adamantylethyloxy-3-morpholino-2-propanol or pharmaceutically acceptable salts thereof for treatment and prevention of ischemic brain lesions after thrombolysis, stenting, balloon angioplasty, atheroctomy and removal of aneurysms in the internal carotid and vertebral arteries system.

[3] = Experimental treatment of rats with ischemic ACVA: endothelial dysfunction and nitrosating stress; format: in vivo; settings: 20 mg/kg once a day for 96 hours of ischemia
From the text: This provides the basis of its use for treatment and prevention of ischemic brain lesions after thrombolysis, stenting, balloon angioplasty, atheroctomy and removal of aneurysms in the internal carotid and vertebral arteries system.

OC(COCCC12CC3CC(CC(C3)C1)C2)CN1CCOCC1 (stereo not drawn) [1-adamantylethyloxy-3-morpholino-2-propanol]
cerebral blood flow in the internal carotid artery system [1]: stimulates the cerebral blood flow | NMDA-receptors blocking/unblocking [2]: very fast | modulation of aspartate-activated currents (action on NMDA-receptor-ionofor complex) [2]: exhibits properties of activator NMDA-receptor-ionofor complex | neuronal degradation marker activity (neurospecific enolase) (neurospecific enolase): promoted the reduction | endothelial dysfunction manifestations [3]: promoted the decrease | nitrosating stress manifestations [3]: promoted the decrease
